From US8268856B2, “Method to use compositions having antidepressant anxiolytic and other neurological activity and compositions of matter” (priority 2007, dated 2012)
Entries after “also recorded” stand apart in the source; their conditions may differ. Like-named read-outs stand apart in the source and are kept apart here.

Assays:
male Swiss Webster mice [1] = assay: Porsolt forced swim test (FST); assay type: in vivo, mouse; conditions: for antidepressant-like activity / effect on immobility time in FST: male Swiss Webster mice, IP, immobility during last 4 min of 6 min swim
Method: (§1) Locomotor Activity and the FST. To evaluate the isolated compounds for antidepressant-like activity, male Swiss Webster mice (Harlan, Indianapolis, Ind.) (25-30 g weight) were used. Animals were housed in groups of five with a 12 h light/12 h dark cycle. Food and water were provided at libitum. All procedures involving animals were performed as approved by the Institutional Animal Care and Use Committee of the University of Mississippi. Animals were randomly divided into groups (n=6-10/group). Each group was injected IP with either the compound (1-20 mg/kg), desipramine (20 mg/kg), or vehicle (saline, 10% ethanol or 10% ethanol/1% DMSO). Following injection, locomotor activity was monitored using an automated activity monitoring system (San Diego Instruments, San Diego, Calif.). Each mouse was placed in a Plexiglas enclosure and locomotor activity was recorded as the number of photobeam interruptions for 30 min after drug injection. The activity for the last ten min was quantified and analyzed. Immediately at the end of the locomotor session, individual mice were subjected to the FST. The mice were individually placed in a clear plastic cylinder (23 cm high, 10 cm internal diameter) filled with deionized water (8 cm high) at 25° C. The mice were recorded with a video camera (positioned at about 30 cm above the cylinder) for a total of 6 min. The total period of immobility during the last 4 min was timed by three independent observers. The mean immobility time was then calculated. A mouse was judged to be immobile when it remained afloat, making only minimal movements to keep its head above water.
(§2) For the FST, immobility times of the three independent rates were averaged for each mouse and data were analyzed using one way analysis of variance (ANOVA) followed by Bonferroni Multiple comparison posthoc tests to determine statistical differences from the corresponding vehicle control. Chick distress vocalization data were analyzed by two-way repeated measures ANOVA, one-way ANOVA and simple effects analyses with post-hoc comparisons conducted using Fisher's LSD test. p-Values less than 0.05 were considered statistically significant.
(§3) Porsolt R D, et al. Behavioral Despair In Mice: A Primary Screening Test for Antidepressants, 229 Arch. Int. Pharmacodyn. 327-36 (1977). […] In order to control for false positives, as has been previously observed with psychostimulants, Cryan, J., et al. Assessing Substrates Underlying The Behavioral Effects Of Antidepressants Using The Modified Rat Forced Swimming Test. 29 Neurosci Biobehav Rev. 547-69 (2005) locomotor activity of the animals was monitored using an automated photobeam activity monitoring system. Lucki. I. The Forced Swimming Test As A Model For Core And Component Behavioral Effects Of Antidepressant Drugs. 8 Behav. Pharmacol. 522-32 (1997).

male Swiss Webster mice [2] = assay: Locomotor activity test, Swiss Webster mice; assay type: in vivo, mouse; conditions: IP, photobeam interruptions, versus vehicle
Method: as §1
(§4) Effect of select compounds on locomotor activity. Since reductions in immobility time is the primary criterion to assess antidepressant like activity in both the FST and TST, it is crucial to confirm that the effects observed in both tests are not attributed to specific stimulant action of the tested compounds, which would be reflected as enhancement of the locomotor activity. Accordingly, the effect of tested compounds on locomotor activity was evaluated using an automated activity monitoring system.

white-leghorn cockerels = assay: Chick anxiety-depression continuum model (SCADM); assay type: in vivo; conditions: 30 mg/kg dose
Method: 5,6-Dibromo-N,N-dimethyltryptamine (1) was evaluated in the FST and chicken anxiety-depression model. […] In the chick anxiety-depression continuum model, socially raised chicks are separated from conspecifics during a two hour test session. […] Previous studies have shown the first 5 min block to model the anxiety phase whereby a diverse set of anxiolytic compounds reduce distress vocalizations and that the last 90 min of the test session models the depressive phase of the model whereby antidepressants increase distress vocalizations (i.e., block the onset of behavioral despair). Sufka, K. J. et al.; 17 C. M. Behav.
Sulfka Chick Anxiety-Depression Model (SCADM) Test. Group housed white-leghorn cockerels (Cal-Maine W36) were tested at ages 5-6 days post-hatch. […] Vocalizations were recorded in 5-min blocks over a 120 min test period. […]
as §2

Male DBA2/J mice = assay: Mouse tail suspension test (TST); assay type: in vivo; conditions: i.p., versus vehicle
Text: Based on the data collected from the FST, the antidepressant action of aaptamine. 5,6-dibromo-N,N-dimethyltryptamine, and 3-bromotyramine was examined in the mouse tail suspension test (TST), another model highly predictive of antidepressant action. Similar to the FST, this test depends on the depressive behavior elicited by the animals when placed in an inescapable situation, in this case suspending the animal by its tail. Male DBA2/J mice were used for this test.
In fact, higher doses seem to increase immobility time (FIG. 9C). […] However, such effect was only evident at the 40 mg/kg dose (compared to 10 and 20 mg/kg dose in the FST) (FIG. 9D).

5-HT2B receptors = 5-HT2B receptors (UniProt P41595); assay: In vitro receptor binding assay, 5-HT2B; set-up: species or system human or rodent; conditions: read-out: Ki 5-HT2B; preliminary data
Method: (§5) Evaluation of binding affinity of isolated compounds to serotonin receptors. In vitro testing of isolated compounds was completed using a small panel of receptor binding assays and then validated in a comprehensive panel by the NIMH Psychoactive Drug Screening Program. Pharmacological and functional screening of isolated molecules was performed on cloned human or rodent CNS receptors, channels, and transporters. Hu, J-F., et al. New Antiinfective and Human 5-HT2 Receptor Binding Natural and Semisynthetic Compounds from the Jamaican Sponge Smenospongia aurea. 65 Jour. of Nat. Prod. 476-80 (2002).

5-HT6 = 5-HT6 (UniProt P50406); assay: In vitro receptor binding assay, 5-HT6; set-up: species or system human or rodent; conditions: read-out: Ki 5-HT6; preliminary data
Method: as §5

5HT2A receptor [3] = biological target: T1, 5HT2A receptor (Homo sapiens, UniProt P28223); assay: In vitro receptor binding assay, 5-HT2A; set-up: species or system human or rodent; conditions: read-out: Ki 5-HT2A; preliminary data
Method: as §5

5-HT2C = biological target: T2, 5-HT2C (UniProt P28335); assay: In vitro receptor binding assay, 5-HT2C; set-up: species or system human or rodent; conditions: read-out: Ki 5-HT2C; preliminary data
T2 sequence (P28335 1-458): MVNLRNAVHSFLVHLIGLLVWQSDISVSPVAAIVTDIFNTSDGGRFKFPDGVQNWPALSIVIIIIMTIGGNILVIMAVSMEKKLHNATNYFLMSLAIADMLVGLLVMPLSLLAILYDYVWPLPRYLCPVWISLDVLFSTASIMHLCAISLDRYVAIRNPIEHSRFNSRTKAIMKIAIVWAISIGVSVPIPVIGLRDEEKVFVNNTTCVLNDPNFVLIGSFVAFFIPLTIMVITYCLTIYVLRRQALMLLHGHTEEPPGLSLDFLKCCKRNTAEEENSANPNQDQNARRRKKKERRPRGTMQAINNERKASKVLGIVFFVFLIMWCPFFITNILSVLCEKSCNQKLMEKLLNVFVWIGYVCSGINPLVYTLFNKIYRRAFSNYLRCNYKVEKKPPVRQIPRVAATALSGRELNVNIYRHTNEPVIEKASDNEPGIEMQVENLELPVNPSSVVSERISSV
Method: as §5

serotonin receptors = assay: Affinity to serotonin receptors (receptor binding panel); set-up: species or system human or rodent
Method: as §5, §3

5HT2A receptor [4] = biological target: T1, 5HT2A receptor; conditions: human serotonin receptor, reported; cited from earlier work
5HT2C receptor = biological target: T3, 5HT2C receptor (Homo sapiens, UniProt P28335); conditions: cited from earlier work; for Ki: human serotonin receptor, reported
T3 sequence (P28335 33-458): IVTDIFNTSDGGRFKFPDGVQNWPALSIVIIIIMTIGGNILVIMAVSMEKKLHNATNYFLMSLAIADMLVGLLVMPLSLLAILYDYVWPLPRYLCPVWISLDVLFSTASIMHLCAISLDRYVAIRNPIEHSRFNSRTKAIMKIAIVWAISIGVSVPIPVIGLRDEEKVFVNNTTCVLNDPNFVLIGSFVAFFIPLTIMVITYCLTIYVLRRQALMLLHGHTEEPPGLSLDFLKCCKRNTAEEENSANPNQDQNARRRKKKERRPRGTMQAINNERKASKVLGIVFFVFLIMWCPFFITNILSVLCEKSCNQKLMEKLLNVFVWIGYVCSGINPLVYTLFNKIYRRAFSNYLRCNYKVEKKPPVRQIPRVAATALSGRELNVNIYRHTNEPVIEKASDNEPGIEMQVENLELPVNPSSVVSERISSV

DBA2/J mice = assay: Locomotor activity test, DBA2/J mice; assay type: in vivo, mouse; conditions: versus vehicle
Method: as §4
However, Tukey's post-hoc tests confirmed that there were no statistical differences between the vehicle controls, or compounds from their respective vehicle controls (FIG. 10A). […] In DBA2/J mice, the pattern of responding in the locomotor studies was similar to that observed in the Swiss Webster mice (FIG. 10B). […] It is thus evident that the drug/dose combinations that produced antidepressant-like effects in both the FST and TST were not associated with confounding stimulant effects effect of select compounds in chick anxiety/depression model: […]

T1 sequence (P28223 whole entry): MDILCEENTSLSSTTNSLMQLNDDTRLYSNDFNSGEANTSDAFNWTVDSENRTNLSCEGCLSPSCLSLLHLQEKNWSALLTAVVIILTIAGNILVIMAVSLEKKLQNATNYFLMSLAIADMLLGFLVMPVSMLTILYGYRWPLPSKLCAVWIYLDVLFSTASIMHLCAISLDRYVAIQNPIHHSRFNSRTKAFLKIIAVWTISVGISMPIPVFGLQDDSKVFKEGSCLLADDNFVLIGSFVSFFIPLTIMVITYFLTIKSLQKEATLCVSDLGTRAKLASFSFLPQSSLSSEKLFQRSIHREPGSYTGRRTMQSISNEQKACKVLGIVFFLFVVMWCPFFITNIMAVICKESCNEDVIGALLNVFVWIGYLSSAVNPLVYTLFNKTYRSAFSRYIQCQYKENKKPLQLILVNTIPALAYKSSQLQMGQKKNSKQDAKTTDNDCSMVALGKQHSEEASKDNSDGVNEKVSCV

Question: Which results are given for CN(C)CCc1c[nH]c2cc(Br)c(Br)cc12 [5,6-dibromo-N,N-dimethyltryptamine]?
Answer: antidepressant-like activity / effect on immobility time in FST (male Swiss Webster mice [1]; versus vehicle): significant antidepressant-like action at only the 20 mg/kg dose; antidepressant-like activity / effect on immobility time in FST (male Swiss Webster mice [1]; versus vehicle, listed as 5,6-Dibromo-N,N-dimethyltryptamine): significant antidepressant-like activity; also recorded: significantly reduced the immobility time only at the 20 mg/kg dose; effect on locomotor activity (male Swiss Webster mice [2]): no statistically significant difference; also recorded: nonsignificant trend toward decreasing locomotor activity; separation distress vocalizations, depression phase (white-leghorn cockerels; 30-120 min of test session): elevating separation distress vocalizations in the final 30 min of the depression phase; separation distress vocalizations, anxiety phase (white-leghorn cockerels; first 5 min of test session): attenuating separation distress vocalizations in the anxiety phase; antidepressant-like action / immobility in tail suspension test (Male DBA2/J mice): strong antidepressant-like action at the 5 mg/kg dose only; Ki (5-HT2B receptors): 11 nM; Ki (5-HT6): 48 nM; Ki (5HT2A receptor [3]): 243 nM; Ki (5-HT2C): 187 nM; affinities to serotonin receptors (serotonin receptors): moderate affinities

Question: For CN(C)CCc1c[nH]c2ccc(Br)cc12 [5-bromo-N,N-dimethyltryptamine], which “antidepressant-like activity / effect on immobility time in FST” value (from here on “antidepressant-like activity / effect”) (male Swiss Webster mice [1]; versus vehicle) is on record?
Answer: did not exhibit antidepressant-like activity

Question: And the “effect on locomotor activity” value (male Swiss Webster mice [2])?
Answer: significant reduction of locomotor activity

Question: What about the “effect on locomotor activity” value (male Swiss Webster mice [2]; listed as 2) of the same molecule?
Answer: significant sedative effect

Question: For CN1C(=N)NC(=Cc2c[nH]c3cc(Br)ccc23)C1=O [6-bromo-2′-de-N-methylaplysinopsin], which Ki (5HT2A receptor [4]) is on record?
Answer: > 100000 nM

Question: And the “selectivity to 5HT2C receptors” value (5HT2C receptor; 5HT2C over 5HT2A)?
Answer: 40 fold

Question: What about the Ki (5HT2C receptor) of the same molecule?
Answer: 2300 nM

Question: Which Ki (5HT2A receptor [4]) does the source give for CN1C(=N)N(C)/C(=C/c2c[nH]c3cc(Br)ccc23)C1=O [6-bromoaplysinopsin] here?
Answer: 2000 nM

Question: What about the Ki (5HT2C receptor) of the same molecule?
Answer: 330 nM

Question: Which results are given for Oc1cc2ccnc3c2c(c1O)NC=C3 [8,9-demethylaaptamine]?
Answer: antidepressant-like activity / effect on immobility time in FST (male Swiss Webster mice [1]; versus vehicle): Neither; affinities to serotonin receptors (serotonin receptors): moderate affinities

Question: For NCCc1ccc(O)c(Br)c1 [216/218, 2-(3′-bromo-4′hydroxyphenol)-ethanamine], which “antidepressant-like activity / effect” value (male Swiss Webster mice [1]; versus vehicle) is on record?
Answer: dose dependent reduction in immobility

Question: And the “effect on locomotor activity” value (male Swiss Webster mice [2])?
Answer: did not alter the locomotor activity

Question: And the “effect on locomotor activity” value (DBA2/J mice)?
Answer: did not alter the locomotor activity

Question: And the “antidepressant-like action / immobility in tail suspension test” value (Male DBA2/J mice)?
Answer: significant antidepressant action

Question: What about the “affinities to serotonin receptors” value (serotonin receptors) of the same molecule?
Answer: moderate affinities

Question: Which “antidepressant-like activity / effect” value (male Swiss Webster mice [1]; versus vehicle) does the source give for CN1C(=N)N(C)/C(=C/c2c[nH]c3ccccc23)C1=O [Aplysinopsin, aplysinopsin] here?
Answer: did not show any significant antidepressant-like activity

Question: Which “reduction in immobility time in FST” value (male Swiss Webster mice [1]; 20 mg/kg dose, versus vehicle) does the source give for COc1cc2ccnc3c2c(c1OC)NC=C3 [aaptamine] here?
Answer: 36%

Question: Which “reduction in immobility time in FST” value (male Swiss Webster mice [1]; 5 mg/kg dose, versus saline vehicle) does the source give for CN(C)CCCC1(c2ccc(F)cc2)OCc2cc(C#N)ccc21 (stereo not drawn) [citalopram, reference compound] here?
Answer: 40%

Question: What does the source list for CNCCCN1c2ccccc2CCc2ccccc21 [desipramine, reference compound]?
Answer: reduction in immobility time in FST (male Swiss Webster mice [1]; 20 mg/kg dose, versus vehicle): 27%; effect on locomotor activity (male Swiss Webster mice [2]): no significant difference in locomotor activity; antidepressant-like action / immobility in tail suspension test (Male DBA2/J mice): significant reduction in immobility

Question: Which “antidepressant-like activity / effect” value (male Swiss Webster mice [1]; versus vehicle) does the source give for COc1cc2ccnc3c2c(c1O)N(C)C=C3 [isoaaptamine] here?
Answer: significantly increased immobility time in a dose-dependent manner

Question: And the “affinities to serotonin receptors” value (serotonin receptors)?
Answer: moderate affinities

Question: For N-3′-ethylaplysinopsin, which Ki (5HT2A receptor [4]) is on record?
Answer: 1700 nM

Question: And the Ki (5HT2C receptor)?
Answer: 3500 nM
